{
  "source": "patent US20150216880A1",
  "about": "“INDUCING LACTATION IN NURSING FEMALES” (priority 2014, published 2015)",
  "test_system": "lactation in nursing females",
  "assay": "Topical cream applied to the nipple of a nursing mother; reported milk production",
  "type": "in vivo, human",
  "details": "nursing parent with child, 2 ml of Lubriderm Ultra cream with two percent, by volume, stanozolol, left on about two minutes, then washed off",
  "method": "In use, the cream is applied to a nipple prior to breast feeding. Generally, the cream is left on the nipple for about five to about twenty minutes and, usually, for about five to about fifteen minutes.\nIt is then removed by washing. Then the mother is then ready to being nursing.\nA nursing parent having a child with the ability to achieve adequate lactation has applied a 2 ml quantity of a Lubriderm Ultra cream having two percent, by volume, stanozolol added thereto. The so-applied cream is left on for about two minutes. It is then washed off.",
  "data": [
    {"smiles": "C[C@]12Cc3c[nH]nc3C[C@@H]1CC[C@@H]1[C@@H]2CC[C@@]2(C)[C@H]1CC[C@]2(C)O", "note": "[stanozolol]", "values": [
      {"measurement": "milk production (reported by the mother)", "result": "increase in milk production"}
    ]}
  ]
}
